Results taken from US20260232767A1, “INTERLEUKIN-23 RECEPTOR ANTAGONIST PEPTIDES FOR USE IN THE TREATMENT OF PSORIASIS” (Janssen Pharmaceutica NV, priority 2023, published 2026).
Like-named read-outs stand apart in the source and are kept apart here.

System: neutralizing antibodies to the IL-23 receptor antagonist peptide
Settings: through Week 16

CC(=O)NCCCC[C@@H]1NC(=O)[C@H](Cc2c[nH]c3c(C)cccc23)NC(=O)[C@H]([C@@H](C)O)NC(=O)[C@H](CC(N)=O)NC(=O)[C@@H](NC(C)=O)C(C)(C)SSC(C)(C)[C@@H](C(=O)N[C@@H](Cc2ccc(OCCN)cc2)C(=O)N[C@@H](Cc2ccc3ccccc3c2)C(=O)NC2(C(=O)N[C@@H](CCC(=O)O)C(=O)N[C@@H](CC(N)=O)C(=O)N[C@@H](Cc3cccnc3)C(=O)N(C)CC(N)=O)CCOCC2)NC1=O [IL-23 receptor antagonist peptide, Ac-[Pen]*-N-T-[W(7-Me)]-[Lys(Ac)]-[Pen]*-Phe[4-(2-aminoethoxy)]-[2-Nal]-[THP]-E-N-[3-Pal]-Sarc-NH2 (*[Pen]-[Pen]* formdisulfidebond)]
negative: NAb result of ADA-positive samples
(100%): Subjects negative for neutralizing antibodies, % (25 mg QD, 1 evaluable) | Subjects negative for neutralizing antibodies, % (50 mg QD, 1 evaluable) | Subjects negative for neutralizing antibodies, % (100 mg BID, 3 evaluable) | Subjects negative for neutralizing antibodies, % (100 mg QD, 3 evaluable) | Subjects negative for neutralizing antibodies, % (Combined doses, 8 evaluable)
